In ChEMBL document CHEMBL5236634, “Membrane-Targeting Neolignan-Antimicrobial Peptide Mimic Conjugates to Combat Methicillin-Resistant Staphylococcus aureus (MRSA) Infections” (J Med Chem, 2022):
Converted amounts (≈) assume the structure as drawn. The source made the active and inactive calls. No cut-off for these calls is given here.

What was measured:
Enterococcus faecalis = assay: Antibacterial activity against Enterococcus faecalis ATCC 29212 assessed as inhibition of bacterial growth incubated for 16 to 20 hrs by CLSI based microdilution method; type: functional; settings: time 16-20 hrs
Micrococcus luteus = assay: Antibacterial activity against Micrococcus luteus assessed as inhibition of bacterial growth incubated for 16 to 20 hrs by CLSI based microdilution method; type: functional; settings: time 16-20 hrs
Staphylococcus aureus [1] = assay: Bactericidal activity against methicillin-resistant Staphylococcus aureus 15 at 4 to 8 times MIC measured at 24 hrs by time kill assay; type: functional, organism-based
Staphylococcus aureus [2] = assay: Inhibition of biofilm formation in Staphylococcus aureus ATCC 29213 at 64 ug/ml incubated for 24 hrs by crystalline violet staining based analysis; type: functional; settings: dose 64.0 µg/ml
Staphylococcus aureus [3] = assay: Inhibition of biofilm formation in methicillin-resistant Staphylococcus aureus 15 at 64 ug/ml incubated for 24 hrs by crystalline violet staining based analysis; type: functional; settings: dose 64.0 µg/ml
Staphylococcus aureus [4] = assay: Inhibition of biofilm formation in methicillin-resistant Staphylococcus aureus 15 assessed as destruction of formed biofilm at 128 ug/ml incubated for 24 hrs by crystal violet staining based analysis relative to control; type: functional
Staphylococcus aureus [5] = assay: Induction of drug resistance in Staphylococcus aureus ATCC 29213 assessed as increase in MIC at 0.5 times MIC measured after 2 days by CLSI based microdilution method; type: functional, organism-based; settings: time 2.0 day
Staphylococcus aureus [6] = assay: Antibacterial activity against Staphylococcus aureus ATCC 29213 assessed as inhibition of bacterial growth incubated for 16 to 20 hrs by CLSI based microdilution method; type: functional; settings: time 16-20 hrs
Escherichia coli = assay: Antibacterial activity against Escherichia coli ATCC 25922 assessed as inhibition of bacterial growth incubated for 16 to 20 hrs by CLSI based microdilution method; type: functional; settings: time 16-20 hrs
Salmonella enterica [7] = assay: Antibacterial activity against Salmonella enterica H9812 assessed as inhibition of bacterial growth incubated for 16 to 20 hrs by CLSI based microdilution method; type: functional; settings: time 16-20 hrs
Salmonella enterica [8] = assay: Antibacterial activity against Salmonella enterica 8389 assessed as inhibition of bacterial growth incubated for 16 to 20 hrs by CLSI based microdilution method; type: functional; settings: time 16-20 hrs
[9] = Hemolytic activity in sheep RBC incubated for 1 hr by absorbance based analysis; type: toxicity, cell-based, Ovis aries, Erythrocyte; settings: sheep red blood cells
[10] = Selectivity index, ratio of HC50 for hemolytic activity in sheep RBC to MIC for antibacterial activity against Staphylococcus aureus ATCC 29213; type: toxicity; settings: sheep red blood cells
Cell membrane [11] = assay: Disruption of membrane integrity in methicillin-resistant Staphylococcus aureus 15 assessed as increase in fluorescence intensity at 32 ug/ml measured immediately by Sytox green based fluorescence method; type: subcellular; settings: dose 32.0 µg/ml
Cell membrane [12] = assay: Induction of membrane depolarization in methicillin-resistant Staphylococcus aureus 15 assessed as increase in fluorescence intensity at 32 ug/ml by DiSC3-5 dye based fluorescence method; type: subcellular; settings: dose 32.0 µg/ml

Compound	MIC (Enterococcus faecalis)	MIC (Micrococcus luteus)	Activity (Staphylococcus aureus [1])	inhibition (Staphylococcus aureus [2])	inhibition (Staphylococcus aureus [3])	inhibition at 128 µg/mL (Staphylococcus aureus [4])	Activity (Staphylococcus aureus [5])	MIC (Staphylococcus aureus [6])	MIC (Escherichia coli)	MIC (Salmonella enterica [7])	MIC (Salmonella enterica [8])	HC50 at 1 h [9]	selectivity ratio [10]	Activity (Cell membrane [11])	Activity (Cell membrane [12])
CN[C@H](CC(C)C)C(=O)N[C@H]1C(=O)N[C@@H](CC(N)=O)C(=O)N[C@H]2C(=O)N[C@H]3C(=O)N[C@H](C(=O)N[C@H](C(=O)O)c4cc(O)cc(O)c4-c4cc3ccc4O)[C@H](O)c3ccc(c(Cl)c3)Oc3cc2cc(c3O[C@@H]2O[C@H](CO)[C@@H](O)[C@H](O)[C@H]2O[C@H]2C[C@](C)(N)[C@H](O)[C@H](C)O2)Oc2ccc(cc2Cl)[C@H]1O [VANCOMYCIN]	1 µg/mL (≈ 0.69 µM)	2 µg/mL (≈ 1.38 µM)	inactive	inactive	inactive	60%	–	–	–	–	–	–	–	–	–
CCn1cc(C(=O)O)c(=O)c2cc(F)c(N3CCNCC3)cc21	–	–	–	–	–	–	Active	–	–	–	–	–	–	–	–
C=CCc1cccc(Oc2ccc(C(=O)CC)cc2)c1OCC[N+](C)(C)CC(=O)N(CC)CC.[Br-]	64 µg/mL	32 µg/mL	–	–	–	–	–	64 µg/mL	128 µg/mL	> 128 µg/mL	> 128 µg/mL	690 µg/mL	10.8	–	–
C=CCc1cccc(Oc2ccc(C(=O)CC)cc2)c1OCC[N+](C)(C)CC(=O)NCCCCC.[Br-]	16 µg/mL	16 µg/mL	–	–	–	–	–	8 µg/mL	32 µg/mL	64 µg/mL	64 µg/mL	1550 µg/mL	194	–	–
Br.C=CCc1cccc(Oc2ccc(C(=O)CC)cc2)c1OCCSC(=N)N	64 µg/mL	64 µg/mL	–	–	–	–	–	32 µg/mL	64 µg/mL	128 µg/mL	64 µg/mL	789 µg/mL	24.6	–	–
C=CCc1cccc(Oc2ccc(C(=O)CC)cc2)c1OCCC[N+](C)(C)CC(=O)N(CCCC)CCCC.[Br-]	16 µg/mL	16 µg/mL	–	–	–	–	–	4 µg/mL	64 µg/mL	128 µg/mL	128 µg/mL	776 µg/mL	194	–	–
C=CCc1cccc(Oc2ccc(C(=O)CC)cc2)c1OCCCC[N+](C)(C)CC(=O)NCCCCC.[Br-]	8 µg/mL	16 µg/mL	–	–	–	–	–	4 µg/mL	32 µg/mL	128 µg/mL	64 µg/mL	564 µg/mL	141	–	–
Br.C=CCc1cccc(Oc2ccc(C(=O)CC)cc2)c1OCCCCSC(=N)N	32 µg/mL	16 µg/mL	–	–	–	–	–	16 µg/mL	32 µg/mL	128 µg/mL	64 µg/mL	931 µg/mL	58.2	–	–
C=CCc1cccc(Oc2ccc(C(=O)CC)cc2)c1OCCCC[N+](C)(C)CC(=O)NCCC.[Br-]	64 µg/mL	128 µg/mL	–	–	–	–	–	32 µg/mL	64 µg/mL	128 µg/mL	128 µg/mL	823 µg/mL	25.7	–	–
C=CCc1cccc(Oc2ccc(C(=O)CC)cc2)c1OCC[N+](C)(C)CC(=O)NCCC.[Br-]	32 µg/mL	64 µg/mL	–	–	–	–	–	32 µg/mL	128 µg/mL	128 µg/mL	> 128 µg/mL	634 µg/mL	19.8	–	–
C=CCc1ccc(O)c(Oc2ccc(C(=O)CC)cc2)c1	128 µg/mL (≈ 453 µM)	64 µg/mL (≈ 227 µM)	–	–	–	–	–	128 µg/mL (≈ 453 µM)	128 µg/mL (≈ 453 µM)	128 µg/mL (≈ 453 µM)	> 128 µg/mL	> 640 µg/mL	> 5	–	–
CC[C@H](C)[C@H](NC(=O)CN)C(=O)NCC(=O)N[C@@H](C)C(=O)N[C@H](C(=O)N[C@@H](CC(C)C)C(=O)N[C@@H](CCCCN)C(=O)N[C@H](C(=O)N[C@@H](CC(C)C)C(=O)N[C@H](C(=O)N[C@H](C(=O)NCC(=O)N[C@@H](CC(C)C)C(=O)N1CCC[C@H]1C(=O)N[C@@H](C)C(=O)N[C@@H](CC(C)C)C(=O)N[C@H](C(=O)N[C@@H](CO)C(=O)N[C@@H](Cc1c[nH]c2ccccc12)C(=O)N[C@H](C(=O)N[C@@H](CCCCN)C(=O)N[C@@H](CCCNC(=N)N)C(=O)N[C@@H](CCCCN)C(=O)N[C@@H](CCCNC(=N)N)C(=O)N[C@@H](CCC(N)=O)C(=O)N[C@@H](CCC(N)=O)C(N)=O)[C@@H](C)CC)[C@@H](C)CC)[C@@H](C)O)[C@@H](C)O)C(C)C)C(C)C	–	–	–	–	–	–	–	–	–	–	–	–	–	Active	Active
C=CCc1cccc(Oc2ccc(C(=O)CC)cc2)c1OCCC[N+](C)(C)CC(=O)NCCCC.[Br-]	16 µg/mL	32 µg/mL	–	–	–	–	–	8 µg/mL	32 µg/mL	64 µg/mL	128 µg/mL	507 µg/mL	63.3	–	–
C=CCc1cccc(Oc2ccc(C(=O)CC)cc2)c1O	128 µg/mL (≈ 453 µM)	64 µg/mL (≈ 227 µM)	–	–	–	–	–	128 µg/mL (≈ 453 µM)	128 µg/mL (≈ 453 µM)	> 128 µg/mL	> 128 µg/mL	438 µg/mL	3.4	–	–
